These results are taken from patent publication US8143403B2 (Bristol-Myers Squibb Company, priority 2008, dated 2012).

Assay [1] has as its system CGRP-induced increase in laser Doppler facial blood flow. The experiment in a line: Inhibition of CGRP-induced increase in laser Doppler facial blood flow in non-human primate. The format is in vivo, common marmoset (Callithrix jacchus). How it is done:
FIG. 4. […] Data are peak % change from baseline±sem, with each animal serving as its own control.
Saturation/Scatchard Analysis. […] Saturation data were analyzed using a one site binding equation to estimate apparent equilibrium dissociation constant (Kd) and the maximum number of binding sites (Bmax) (Prizm v4.0, Graphpad). […] Functional Antagonism/Schild analysis. Agonist stimulation of CGRP receptor complex leads to cyclic AMP (adenosine 3′5′-cyclic monophosphate) production via Gs-dependent activation of an adenylate cyclase (Juaneda C et al., TiPS, 2000; 21:432-438). Consequently, CGRP receptor antagonists inhibit CGRP-induced cyclic AMP formation in SK-N-MC cells which natively express the CGRP receptor complex (Doods H et al., Br J Pharmacol, 2000; 129(3):420-423). […] A Schild analysis format was used, which allowed investigation of the mechanism of antagonism. […] Various concentrations of CGRP were added and the cells were allowed to incubate 30 min at room temperature. The cells were lysed with lysis reagent and cAMP concentrations were determined by HTRF according to the manufacturer's instructions. A standard curve using known quantities of cAMP was evaluated in parallel to allow conversion of HTRF ratio to nM cAMP. The resulting curves were then evaluated using a Gaddum/Schild equation individually and with global fitting (Prizm v4.0, Graphpad). […] To obtain a global fit the following parameters were shared (top, bottom, logEC50, Hill slope and pA2) and all curves were fit simultaneously. […] Non-Terminal Method for Assessing In Vivo Efficacy of Small Molecule CGRP-Receptor Antagonists in Mammals Overview. […] Non-human primates (e.g., marmosets) are the only animals known to have human-like CGRP receptor pharmacology conferred by the presence of the specific amino acid residue (Trp74) in their RAMP1 sequence which is responsible for the phenotype of the human receptor (Mallee et al. J Biol Chem 2002 277:14294). Since current migraine models primarily use rats (Escott et al. Brain Res 1995 669:93; Williamson et al. Cephalalgia 1997 17:525), or are invasive, terminal procedures in primates (Doods et al. Br J Pharmacol 2000 129:420), a novel non-invasive, survival model in non-human primates for in vivo efficacy assessment of CGRP-receptor antagonists was developed. […] Peptide and small-molecule CGRP-receptor antagonists were used to validate the non-human primate model. […] Animals. Adult male and female common marmosets (Callithrix jacchus) purchased from Harlan and weighing 350-550 g served as subjects. Anesthesia & Surgical Preparation. Animals are anesthetized by isoflurane inhalation in an induction chamber (4-5% rapid induction, maintained with 1-2.5%; Solomon et al., 1999).

For assay [2], the system named is i.v. hαCGRP-induced increase in middle meningeal artery diameter and facial blood flow. In words: Validation of facial blood flow as surrogate for intracranial artery dilation in the rat. The format is in vivo. As to conditions: pretreatment, n=5 rats.

Marks after values point to notes of the source that are not given here. No end group written: not given here.

For “haCGRP(8-37): peptide antagonist, peptide fragment CGRP(8-37) (VTHRLAGLLSRSGGVVKNNFVPTNVGSKAF; ends and bridges not checked; UniProt P06881 90-119, looked up, fragment) [reference compound]”, the “% Inhibition” value in assay [1] (1 mg/kg i.v., pretreat 0 min, 15 min, hαCGRP 10 μg/kg i.v.) is on record as 87.2* %. For the same substance, the “inhibition of i.v. CGRP-stimulated increases in primate facial blood flow” value in assay [1] (pre-treatment) is recorded as “dose-dependently inhibited”. In addition, in assay [2], the “inhibition of i.v. hαCGRP-induced increase in facial blood flow” value is listed as 50% and the “inhibition of i.v. hαCGRP-induced increase in middle meningeal artery diameter” value worked out at 50%.
